Reference: US20110028400A1, “SULFATED UNSATURATED DISACCHARIDIC CHONDROITIN SULFATE IN CONNECTIVE TISSUE PROTECTION AND REPAIR” (NESTEC S.A., priority 2008, published 2011)
Counter-ions that a name gives are not always drawn.

Key:
[1] = tested on: explants of articular cartilage; assay: IL1β-induced GAG (35S) release from cultured bovine articular cartilage explants; type: cell-based; details: for slowing down cytokine-induced cartilage destruction in vitro: comparison among chondroitin disaccharides and higher molecular weight forms
From the text: It was investigated here whether normal commercially available chondroitin sulphate and different low molecular weight forms of chondroitin sulphate including disaccharides could inhibit the degradation of aggrecan in cultured explants of articular cartilage. Explants from healthy bovine articular cartilage were put in culture and loaded with S^35. S^35 is incorporated in the glycosaminoglycan chains of the aggrecan molecules of the cartilage and its release in the media is considered as a surrogate marker of glycosaminoglycan release and aggrecan catabolism. However, explants from healthy bovine articular cartilage naturally display a very low catabolic activity which is not ideal to test the anti-catabolic activity of potential bioactives. To improve the sensitivity of the assay, the explants were cultured in presence of IL1β, a pro-inflammatory cytokine, known to act as a potent inducer of MMP and aggrecanase activities. The different low molecular weight forms of chondroitin sulphate were added to the culture media together with IL1β to see whether they can decrease the IL1β-induced aggrecan catabolism. In addition, the effects of the low molecular weight forms of chondroitin sulphate on IL1β-induced NO production were also investigated. Nitric oxide is a reactive oxygen species known to participate in the progression of osteoarthritis.
(§1) The articular cartilage explants were dissected out of the metacarpophalangeal joint of old cows (8-10 years). The skin was removed from the feet. The articulation was opened transversally. Intraarticular ligaments were transected. […] Under the hood, similar quantities of cartilage were distributed between the wells of a 24-wells plate containing 500 μl of medium (DMEM+20% FBS, 1% penicillin/streptomycin, 0.1% gentamycin) per well. […]
The following protocol is based on Campbell et al., Arch Biochem Biophys 234(1): 275-289 and Hascall V C et al., Arch Biochem Biophys 224(1): 206-223. […] After 72 hours, several washes were performed to eliminate the non-incorporated radioactivity. The explants were then treated for 72 hours, after which the supernatants were collected and the amount of radioactivity released in the medium was measured with a beta counter, as a marker of GAG catabolism. The radioactivity present in the explants was also measured and used to normalize the amount of radioactivity released into the media. The radioactivity was expressed in DPM ([…] per minute) and the GAG release is assessed by the following formula:
GAG release=radioactivity in the supernatants/(radioactivity in the supernatants+radioactivity in the explants)

[2] = tested on: explants of articular cartilage; assay: IL1β-induced NO production in cultured bovine articular cartilage explants; type: cell-based; details: 500 μg/ml, with 50 ng/ml IL1β, 72 hours, 4 experiments
From the text: It was investigated here whether normal commercially available chondroitin sulphate and different low molecular weight forms of chondroitin sulphate including disaccharides could inhibit the degradation of aggrecan in cultured explants of articular cartilage. Explants from healthy bovine articular cartilage were put in culture and loaded with S^35. S^35 is incorporated in the glycosaminoglycan chains of the aggrecan molecules of the cartilage and its release in the media is considered as a surrogate marker of glycosaminoglycan release and aggrecan catabolism. However, explants from healthy bovine articular cartilage naturally display a very low catabolic activity which is not ideal to test the anti-catabolic activity of potential bioactives. […]
as §1, with “years).” for “years). The skin was removed from the feet. The articulation was opened transversally. Intraarticular ligaments were transected.”
For NO measurements a protocol based on Gilliam et al., Anal Biochem 212(2): 359-365 was used. […] After ten minutes, absorbance was measured at 538 nm. To quantify the amount of NO in the supernatants, a standard curve was prepared using sodium nitrite (0-60 μM).

[3] = rat intestinal loop model, bioavailability; type: in vivo
knee OA = details: cited from earlier work
knee synovial fluids = details: 10 days of 800 mg once a day; cited from earlier work
[4] = tested on: cartilage damages and proteoglycan loss; details: 20 mg/kg body weight/day, 11 days before to 21 days after chymopapain injection; cited from earlier work
[5] = tested on: proteoglycan depletion in cartilage; details: 100 and 300 mg/kg body weight/day, starting 2 weeks before bradikinin injections; cited from earlier work

Q: Which “IL1β-induced GAG release (percentage of radioactivity release)” value ([1]; dose range 500-50-5 μg/ml, with 50 ng/ml IL1β, 72 hours, FIG. 2) does the source give for `CC(=O)N[C@H]1C(O)O[C@H](CO)[C@H](OS(=O)(=O)O)[C@@H]1O` (stereo partly shown) [GalNac 4S, 4 sulfated N-acetylgalactosamine] here?
A: no effect

Q: Which “amount of GAG released in the supernatants compared to IL1β alone” value ([1]; 500 μg/ml, with 50 ng/ml IL1β, 72 hours, 4 independent experiments) does the source give for `CC(=O)N[C@H]1C(O)O[C@H](CO)[C@H](OS(=O)(=O)O)[C@@H]1O[C@@H]1OC(C(=O)O)=C[C@H](O)[C@H]1O` (stereo partly shown) [Δdi4S, 4-sulfated unsaturated disaccharidic chondroitin sulfate] here?
A: significantly (p<0.05) decreased

Q: What about the “slowing down cytokine-induced cartilage destruction in vitro” value [1] of the same compound?
A: by far the most effective compound

Q: And the “amount of NO in the supernatants compared to IL1β alone” value [2]?
A: significantly (p<0.05) decreased

Q: And the bioavailability [3]?
A: more bioavailable than regular high molecular weight chondroitin sulfate

Q: With Chondroitin sulfate [CS] as the compound, how does the “slowing down cytokine-induced cartilage destruction in vitro” value [1] read?
A: did not have any significant effect

Q: And the “improvement of the Lesquesne index versus diclofenac” value (knee OA; 400 mg of CS 3 times a day, double-blind RCT)?
A: slower than 50 mg of diclofenac

Q: What about the “mean and minimum joint space width and joint space surface area on X-rays” value (knee OA; 800 mg CS, one year double-blind placebo-controlled RCT) of the same compound?
A: decreased significantly in the placebo group but not in the 800 mg CS group

Q: What about the joint space narrowing (knee OA; 800 mg once a day, 2-year double-blind RCT, placebo mean joint space loss 0.14 mm) of the same compound?
A: prevented joint space narrowing

Q: What about the function versus placebo (knee OA; 1000 mg per day, one trial) of the same compound?
A: did not improve function better than placebo

Q: And the “osteoarthritic symptoms, meta-analyses” value (knee OA; 3 meta-analyses)?
A: superior to placebo

Q: And the “spontaneous pain and mobility versus placebo” value (knee OA; 6 of 7 double-blind placebo-controlled RCTs, 3 to 24 months, knee OA)?
A: more efficient than placebo

Q: What about the “pain and mobility, dose comparison” value (knee OA; 800 and 1200 mg once a day) of the same compound?
A: more effective on pain and mobility than placebo or 200 mg

Q: And the “mobility, 1200 mg once a day versus 400 mg three times a day” value (knee OA; both superior to placebo)?
A: No statistical significant difference

Q: And the “time before patients detect a significant difference in pain and mobility” value (knee OA; human, in vivo)?
A: at least 2 weeks

Q: What about the “time required to reach full symptom relief” value (knee OA; human, in vivo) of the same compound?
A: up to 2 months

Q: And the “mobility after intermittent treatment” value (knee OA; two 3 month-long periods in a year, 800 mg once a day)?
A: lasting effects by improving mobility compared to placebo

Q: What about the “persistence of effects after termination of treatment” value (knee OA; versus diclofenac) of the same compound?
A: persisted longer than diclofenac effects

Q: And the “activities of collagenase, phospholipase A2 and N-acetylglucosaminidase in knee synovial fluids” value (knee synovial fluids)?
A: decreasing

Q: What about the “viscosity and hyaluronate concentration in knee synovial fluids” value (knee synovial fluids) of the same compound?
A: significantly increased

Q: What about the “cartilage damages and proteoglycan loss” value [4] of the same compound?
A: decreased cartilage damages and proteoglycan loss

Q: For chondroitin-6 sulfate, which “proteoglycan depletion in cartilage” value [5] is on record?
A: reduced or prevented
